Assay results as given in patent publication US20240374763A1, “DIAGNOSIS AND MONITORING USING EXTRADOMAIN-B FIBRONECTIN TARGETED PROBES” (Case Western Reserve University, priority 2020, published 2024).
Blank lines part the entries; values can stand above or below the molecule they belong to. No end group written: not given here.

Experiments:
DLD1-DR cells = DLD1-DR cells developed with resistance to 5′-FU; cited from earlier work
DLD-1 cells = details: cited from earlier work
SCC4 tumors = experiment: MRMI of OSCC flank xenografts, SCC4; format: in vivo, mice; details: gadoteridol 0.10 mmol/kg
Method: (§1) Animal experiments were performed under an animal protocol approved by the Institutional Animal Care and Use Committee (IACUC) at Case Western Reserve University (CWRU, Cleveland, OH, USA). Female 4-week-old athymic nude mice purchased from the Jackson Laboratory (Bar Harbor, ME, USA) were housed in the Animal Core Facility at CWRU. Anesthetized mice were subcutaneously inoculated in the right flank with 4×10^6 GFP/luciferase-expressing OSCC cells (n=5 per cell line) in 100 μL of a 1:1 mixture of Matrigel HC (Corning) and DPBS. Tumor size was monitored with caliper measurements. After 4 weeks of growth, tumors were sufficiently large for MRI experiments.
MRI experiments were performed with a 3T MRS-3000 system (MR Solutions, Surrey, UK). […] This protocol was repeated on the same mice 2 days later using the untargeted clinical agent gadoteridol at the clinical dose of 0.10 mmol/kg.
(§2) Images were exported in DICOM format and analyzed using FIJI. Contrast-to-noise ratio (CNR) for each time point was calculated as the difference between the mean tumor intensity and the mean muscle intensity, divided by the standard deviation of noise.

[1] = test system: Capan-1 flank tumor xenografts; experiment: MRMI of Capan-1 flank tumor xenografts; format: in vivo, mice; details: 0.1 mmol/kg; MT218 at 15 minutes post-injection, maintained at least 35 minutes; Gd(HP-DO3A) for the duration of the experiment
Method: (§3) For flank xenograft models, 4×10^6 Capan-1 cells suspended in 100 μL of a 6 mg/mL Matrigel (Corning, Corning, NY) solution was injected subcutaneously into the flank of eight-week-old female nu/nu mice. The tumor bearing mice were imaged after tumor volumes exceeded 300 mm^3. For orthotopic intrapancreatic models, the pancreas of four-week-old female nu/nu mice were surgically exposed and 1×10^6 BxPC3-GFP-Luc or PANC-1-GFP-Luc cells suspended in 100 μL of an Matrigel solution (6 mg/mL) was injected into the pancreatic tissue. Prior to imaging, growth of tumor was verified by bioluminescence imaging with intraperitoneal injection of d-luciferin on IVIS Spectrum system (Perkin Elmer, Waltham, MA).
Flank tumor-bearing mice were anesthetized and a tail vein catheter inserted. MR image acquisition was performed on a 7T Biospin (Bruker, Billerica, MA) preclinical small animal scanner with a volume radiofrequency coil. Axial images were obtained using a multi-spin multi-echo (MSME) MRI sequence (500 ms TR, 8.1 ms TE, 900 FA, 4.50 cm×4.50 cm FOV, 1.50 mm slice thickness, 16 slices, 2 averages, 200×200 matrix, 0.0225×0.0225 cm/pixel resolution). Contrast agents were injected at a dose of 0.1 mmol/kg (100 μL) via the tail vein catheter, followed by a saline flush. Images of the tumors were acquired before contrast and at various time points after contrast administration. Gd(HP-DO3A) was used as a control.
Image files were exported and analyzed in Horus software. ROIs were drawn in the tumor, liver, kidney, and muscle. Muscle ROIs were taken from muscle, with other structures (liver, kidney, tumor) identified after comparison with published images and comparison with anatomical landmarks or bioluminescent imaging. Size of ROIs drawn for image analysis are summarized in Supplemental Table S1. The contrast-to-noise ratio of the tumor (CNR) was calculated using the following equation, where σ_noise is the standard deviation of intensities from an ROI drawn outside of the mouse body: […]

Relaxivity measurements = format: physicochemical; details: at 3 T, DPBS buffer
Method: The T1 and T2 values of MT218 and Gd(HP-DO3A) solutions were determined using a 3T MRS 3000 scanner (MR Solutions, Guildford, UK). Solutions of MT218 were prepared at concentrations of 0, 0.25, 0.5, 1, and 2 mM in DPBS buffer (Gibco, Gaithersburg, MD). T1 values were measured using an inversion recovery-fast low angle shot (IR-FLASH) sequence (i=10 ms, TE=4 ms, FA=8°, echoes/frames=128, FOV=40 mm×40 mm, slice thickness =2 mm, number of averages=1, time delay=4000 ms, sample period=200, matrix=256×128). T2 values were obtained using a multi-echo multi-slice (MEMS) sequence (TE=15 ms, […], echoes=10, FOV: 40 mm×40 mm, slice thickness=1 mm, number of averages=1, matrix=256×192). The r1 and r2 relaxivities were calculated from the slopes of 1/T1 and 1/T2 vs. Gd concentration plots, respectively.

[2] = test system: BxPC3-GFP-Luc intrapancreatic tumors; experiment: MRMI of BxPC3-GFP-Luc intrapancreatic tumors; format: in vivo, mice; details: 0.1 mmol/kg, 10 min post-injection
Method: as §3
(§4) Mice bearing intrapancreatic tumors were anesthetized and a tail vein catheter was inserted. Image acquisition was performed on a MR Solutions 3T MRS 3000 scanner with a mouse radiofrequency coil. Axial images were obtained using a Fast Spin Echo (FSE) MRI sequence (305 ms TR, 11 ms TE, 90° F.A, 4 cm×4 cm FOV, 1 mm slice thickness, 10 slices, echo train length=4, echo spacing=11 ms, 4 averages, 256×256 matrix, […] cm/pixel resolution) with respiratory gating. Images were acquired before contrast and at different time points after contrast injection at a dose of 0.1 mmol/kg (100 μL). For competitive binding experiments, a 5:1 molar ratio of free ZD2 peptide to MT218 was injected in mice bearing intrapancreatic BxPC3 tumor xenografts (n=3) at a dose of 0.1 mmol MT218/kg (100 μL). Images obtained on the MR Solutions 3T scanner were normalized using the Surscalereader.exe (MR Solutions, Guildford, UK) program supplied.
Image files were exported and analyzed in Horus software. ROIs were drawn in the tumor, liver, kidney, and muscle. Muscle ROIs were taken from muscle, with other structures (liver, kidney, tumor) identified after comparison with published images and comparison with anatomical landmarks or bioluminescent imaging. Size of ROIs drawn for image analysis are summarized in Supplemental Table S1. The contrast-to-noise ratio of the tumor (CNR) was calculated using the following equation, where σ_noise is the standard deviation of intensities from an ROI drawn outside of the mouse body:
Image contrast was reported as fold enhancement of contrast to noise ratio of postcontrast images over precontrast images using Fold Enhancement=CNRpost/CNRpre. Statistical analysis of CNR was performed in Minitab Express (Minitab Inc, State College, PA). One-way ANOVA with Fisher Individual Tests for Differences of Means post-hoc testing was performed to determine statistical significance between greater than two means (p<0.05). Student's T test was used to determine statistical significance between two means (p<0.05).

[3] = test system: PANC-1-GFP-Luc intrapancreatic tumor xenografts; experiment: MRMI of PANC-1-GFP-Luc intrapancreatic tumor xenografts; format: in vivo, mice; details: 0.1 mmol/kg, 10 min postinjection
Method: as §3, §4
Image files were exported and analyzed in Horus software. ROIs were drawn in the tumor, liver, kidney, and muscle. […] The contrast-to-noise ratio of the tumor (CNR) was calculated using the following equation, where σ_noise is the standard deviation of intensities from an ROI drawn outside of the mouse body: […]

CAL27 tumors = experiment: MRMI of OSCC flank xenografts, CAL27; format: in vivo, mice; details: gadoteridol 0.10 mmol/kg
Method: as §1
MRI experiments were performed with a 3T MRS-3000 system (MR Solutions, Surrey, UK). Tumor-bearing mice were imaged before and at 10, 20, and 30 minutes post-injection of the targeted contrast agent, MT218 (Molecular Theranostics, LLC, Cleveland, OH, USA), at a dose of 0.04 mmol/kg using a T1-weighted fast spin-echo axial sequence with respiratory gating (TR=305 ms, TE=11 ms, FOV=40×40 mm, slice thickness=1 mm, number of slices=15, Nav=2, matrix=256×248). […]
as §2

HSC3 tumors = experiment: MRMI of OSCC flank xenografts, HSC3; format: in vivo, mice; details: gadoteridol 0.10 mmol/kg
Method: as §1
MRI experiments were performed with a 3T MRS-3000 system (MR Solutions, Surrey, UK). Tumor-bearing mice were imaged before and at 10, 20, […] spin-echo axial sequence with respiratory gating (TR=305 ms, TE=11 ms, FOV=40×40 mm, slice thickness=1 mm, number of slices=15, Nav=2, matrix=256×248). This protocol was repeated on the same mice 2 days later using the untargeted clinical agent gadoteridol at the clinical dose of 0.10 mmol/kg.
as §2

[4] = target: extradomain-B fibronectin (EDB-FN) (human) (UniProt P02751); experiment: cell-based or functional assay
Sequence of extradomain-B fibronectin (EDB-FN) (human) (P02751 32-2477): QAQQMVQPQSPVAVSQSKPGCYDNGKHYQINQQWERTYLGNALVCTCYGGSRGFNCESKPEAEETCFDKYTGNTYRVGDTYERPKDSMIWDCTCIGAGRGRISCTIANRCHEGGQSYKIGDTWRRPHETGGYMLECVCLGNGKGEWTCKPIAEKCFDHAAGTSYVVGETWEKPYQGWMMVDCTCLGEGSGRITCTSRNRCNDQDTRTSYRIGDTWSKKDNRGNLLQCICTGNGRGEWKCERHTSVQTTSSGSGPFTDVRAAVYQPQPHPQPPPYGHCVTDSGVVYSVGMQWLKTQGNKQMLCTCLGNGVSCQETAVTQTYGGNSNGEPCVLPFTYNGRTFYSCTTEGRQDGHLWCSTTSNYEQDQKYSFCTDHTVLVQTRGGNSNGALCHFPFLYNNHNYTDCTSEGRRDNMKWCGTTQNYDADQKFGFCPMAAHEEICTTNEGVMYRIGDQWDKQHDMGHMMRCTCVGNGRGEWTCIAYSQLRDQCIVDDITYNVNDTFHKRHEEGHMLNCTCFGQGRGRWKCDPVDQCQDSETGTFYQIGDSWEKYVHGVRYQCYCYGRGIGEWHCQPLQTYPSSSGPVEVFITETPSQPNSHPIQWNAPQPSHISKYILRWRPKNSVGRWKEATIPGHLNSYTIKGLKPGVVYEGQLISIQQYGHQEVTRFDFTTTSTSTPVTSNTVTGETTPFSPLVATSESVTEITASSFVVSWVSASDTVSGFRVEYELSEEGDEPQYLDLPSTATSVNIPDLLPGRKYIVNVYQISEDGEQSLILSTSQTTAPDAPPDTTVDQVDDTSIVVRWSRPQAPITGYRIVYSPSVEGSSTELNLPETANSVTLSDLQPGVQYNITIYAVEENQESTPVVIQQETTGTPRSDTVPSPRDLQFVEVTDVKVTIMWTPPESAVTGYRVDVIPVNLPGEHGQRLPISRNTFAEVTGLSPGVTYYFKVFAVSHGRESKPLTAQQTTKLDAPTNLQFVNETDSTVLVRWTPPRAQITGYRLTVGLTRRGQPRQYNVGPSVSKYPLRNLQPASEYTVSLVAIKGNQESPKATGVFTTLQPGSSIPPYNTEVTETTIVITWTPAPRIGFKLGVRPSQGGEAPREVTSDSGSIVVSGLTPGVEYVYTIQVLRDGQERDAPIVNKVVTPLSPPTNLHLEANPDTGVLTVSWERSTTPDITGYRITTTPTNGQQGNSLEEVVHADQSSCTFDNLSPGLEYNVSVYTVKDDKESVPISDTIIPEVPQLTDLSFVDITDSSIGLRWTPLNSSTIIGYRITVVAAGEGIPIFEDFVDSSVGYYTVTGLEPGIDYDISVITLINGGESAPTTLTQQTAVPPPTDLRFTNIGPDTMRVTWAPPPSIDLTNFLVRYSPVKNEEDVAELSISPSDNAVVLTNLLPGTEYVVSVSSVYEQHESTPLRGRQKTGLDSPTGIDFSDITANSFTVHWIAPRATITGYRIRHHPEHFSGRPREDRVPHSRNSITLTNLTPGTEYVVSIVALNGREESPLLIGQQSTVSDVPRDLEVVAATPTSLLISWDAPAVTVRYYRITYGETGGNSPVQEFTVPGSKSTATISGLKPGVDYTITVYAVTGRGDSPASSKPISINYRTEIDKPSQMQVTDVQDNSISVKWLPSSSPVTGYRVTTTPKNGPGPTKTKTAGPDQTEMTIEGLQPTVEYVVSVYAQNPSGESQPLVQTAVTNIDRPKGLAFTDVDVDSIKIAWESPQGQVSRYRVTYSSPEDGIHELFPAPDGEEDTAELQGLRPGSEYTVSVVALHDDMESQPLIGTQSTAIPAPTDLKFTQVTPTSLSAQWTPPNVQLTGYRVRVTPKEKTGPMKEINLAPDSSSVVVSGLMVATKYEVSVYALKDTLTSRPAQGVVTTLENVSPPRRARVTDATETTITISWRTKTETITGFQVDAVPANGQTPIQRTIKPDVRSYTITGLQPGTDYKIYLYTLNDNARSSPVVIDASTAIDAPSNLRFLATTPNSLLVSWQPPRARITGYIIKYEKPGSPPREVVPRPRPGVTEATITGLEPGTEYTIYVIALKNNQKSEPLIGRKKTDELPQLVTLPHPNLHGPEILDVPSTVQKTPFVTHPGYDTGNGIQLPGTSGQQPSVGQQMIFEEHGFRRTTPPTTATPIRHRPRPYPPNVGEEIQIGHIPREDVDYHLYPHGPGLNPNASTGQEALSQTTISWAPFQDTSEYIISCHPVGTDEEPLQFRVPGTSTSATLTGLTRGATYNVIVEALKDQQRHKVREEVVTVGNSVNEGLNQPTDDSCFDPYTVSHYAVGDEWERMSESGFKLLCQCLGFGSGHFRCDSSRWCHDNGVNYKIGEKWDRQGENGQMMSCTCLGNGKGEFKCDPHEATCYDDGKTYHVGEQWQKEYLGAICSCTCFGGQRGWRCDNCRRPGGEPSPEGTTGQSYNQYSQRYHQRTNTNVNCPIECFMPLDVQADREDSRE

[5] = target: T1, EDB fragment of FN (expressed in E. coli, labelled with NT-647) (UniProt P02751 1266-1356, limits assumed, labelled with amine-reactive dye NT-647); experiment: microscale thermophoresis, NT-647-labelled EDB fragment at fixed concentration, MT218 titrated, 25 °C
T1 construct: domain: EDB fragment of FN
Method: (§5) The binding affinity of MT218 was determined with microscale thermophoresis (MST) using a Nanotemper™ Monolith NT.115 instrument (NanoTemper Technologies, Munich, Germany). The EDB fragment of FN was expressed in E. coli, purified, and labelled with amine-reactive dye NT-647. MT218 was dissolved into assay buffer (50 mM PBS w/0.05% Tween-20). This solution was further diluted using assay buffer to give a series of MT218 working solutions. Each MT218 working solution was then mixed with a fixed concentration of fluorescently labeled EDB fragment. The mixtures of MT218 and EDB were then loaded into standard capillaries, and MST measurements were performed at 25° C. using 20-80% light-emitting diode power and 40% infrared-laser power at varying concentrations of MT218.
MT218 is a small molecular conjugate of ZD2 peptide to a macrocyclic clinical MRI contrast agent Gd(HP-DO3A). […] The T₁ and T₂ relaxivities of MT218 were measured to be 6.07±1.13 s⁻¹ mM⁻¹ and 8.20±0.18 s⁻¹ mM⁻¹, respectively, at 3 T. T₁ and T₂ relaxivities of Gd(HP-DO3A) were measured to be 3.20±0.96 s⁻¹ mM⁻¹ and 5.12±0.18 s⁻¹ mM⁻¹, respectively, at 3 T.

[6] = target: T1, EDB fragment of FN (expressed in E. …); experiment: microscale thermophoresis, MT218 titrated against a fixed concentration of NT-647-labelled EDB fragment, 25 °C [panel B]
Method: as §5

Molecule: O=c1[nH]cc(F)c(=O)[nH]1 [5′-FU, 5′-fluorouracil]
IC50 (DLD1-DR cells): 211 µM
IC50 (DLD-1 cells): 2.5 µM

T1 relaxivity (Relaxivity measurements): 3.20 ± 0.96 s⁻¹ mM⁻¹
T2 relaxivity (Relaxivity measurements): 5.12 ± 0.18 s⁻¹ mM⁻¹
Molecule: Gd(HP-DO3A) [gadoteridol, reference compound]
average maximum enhancement (CNR) (SCC4 tumors): 2.57±0.28
increase of contrast to noise ratio (CNR) [1]: 1.77 fold
tumor CNR increase [2]: approximately 2.5 fold
intratumoral CNR increase [3]: 2.35 fold
average maximum enhancement (CNR) (CAL27 tumors): 2.27±0.18
average maximum enhancement (CNR) (HSC3 tumors): 2.18±0.07

tumor CNR increase (MRMI) in the BxPC3-GFP-Luc intrapancreatic model, MT218 co-injected with an excess of free ZD2 peptide [4]: 2.5 fold
tumor CNR increase (MRMI) in the BxPC3-GFP-Luc intrapancreatic model, MT218 without the free peptide [4]: 4.5 fold
Kd [5]: 3.2 µM
EC50 (read off the curve) [6]: ~3 µM
B1: ZD2-N3-Gd(HP-DO3A) (MT218) (peptide)
peptide: TVRTSAD
modifications: also: conjugated to Gd(HP-DO3A) by click reaction of alkynyl-ZD2 with N3-Gd(HP-DO3A), residue of attachment not given here, Gd complex
notes: Small peptide conjugate of the clinical contrast agent gadoteridol; also called EDB-FN-targeted contrast agent; ZD2 targeted MRI contrast agent
